Source: US8206704B2, “Use of GCC ligands” (priority 2003, dated 2012)
pIC50: −log10 of the molar value. Entries after “also recorded” stand apart in the source; their conditions may differ. Like-named read-outs stand apart in the source and are kept apart here.

Assays:
[1] = test system: T84 cells; assay: DNA synthesis ([methyl-3H]thymidine incorporation), tumor cell proliferation; type: cell-based, human
Experimental: (§1) T84 (passages 50-70) and SW480 (passage 100-120) human colon carcinoma cells, obtained from the American Type Culture Collection, were maintained at 37° C. (5% CO2) in DMEM/F12 containing 2.5 mM L-glutamine, 100 units/ml penicillin, 100 μg/ml streptomycin, and 10% (vol/vol) FBS.
(§2) Exponentially growing cancer cells (˜60% confluent in 96-well plates) were synchronized by serum starvation in Eagle's minimal essential medium (EMEM) for 48 h, followed by proliferative induction with 10 mM L-glutamine (in EMEM) for 24 h. ST and other agents were added to cells 15 min before 0.2 μCi per well (1 Ci=37 GBq) of [methyl-3H]thymidine, which was added for 3 h, followed by quantification of [3H]thymidine incorporation into DNA (15).

[2] = test system: human T84 colon cancer cells; assay: Perforated whole-cell patch-clamp current measurements; type: cell-based
Experimental: The perforated mode of the whole-cell patch-clamp recording was applied to human T84 colon cancer cells. Membrane potential was controlled through the electrical access obtained by membrane perforation induced by amphotericin B (9, 10). The pipette solution supplemented by amphotericin B ([…]) contained: 140 mM KCl, 1 mM MgCl2, 5 mM EGTA, and 20 mM Hepes-KOH (pH 7.3). The bath solution contained (in mM): 136.5 mM NaCl, 5.4 mM KCl, 1.8 mM CaCl2, 0.5 mM MgCl2, 5.5 mM glucose, and 5 mM Hepes-NaOH (pH 7.4). Voltage-clamp recordings were performed with an Axopatch 1-C patch-clamp amplifier (Axon Instruments, Foster City, Calif.) at 31±1° C. using an HCC-100 temperature controller (Dagan Instruments, Minneapolis; ref. 19).

[3] = test system: T84 cells; assay: 45Ca2+ transport (calcium influx); type: cell-based, human
Experimental: Exponentially growing T84 cells (40-80% confluent in 24-well plates) were incubated in media (S-MEM, Life Technologies, Rockville, Md.) containing low (300 μM) CaCl2 to maximize the signal-to-noise ratio for L-cis-diltiazem (L-DLT)-sensitive 45Ca2+ transport determinations. Cells were treated with ST, 8-br-cGMP, and/or L-DLT for the indicated times, followed by the addition of 1 μCi per well 45Ca2+ for the last 15 min. Incubations were terminated by washing four times in cold PBS buffer (145 mM NaCl/5 mM KCl/1 mM MgCl2/10 mM glucose/5 mM Hepes, pH 7.4) containing 0.1 mM EGTA, cells were solubilized with cold NaOH (0.1 M), and radioactivity was quantified in 100-μl aliquots.

[4] = test system: rat colon; conditions: L-DLT 200 μM; cited from earlier work
[5] = test system: SW480 cells; assay: DNA synthesis ([methyl-3H]thymidine incorporation), tumor cell proliferation; type: cell-based, human; conditions: SW480 cells that do not express GC-C, ST 1 μM
Experimental: as §1, §2

[6] = test system: [cGMP]i and intracellular cAMP in T84 cells; assay: Cyclic nucleotide (cGMP, cAMP) quantification by ELISA or RIA; type: cell-based, human
Experimental: cGMP and cAMP were quantified in exponentially growing T84 cells (˜60% confluent in 96-well plates) employing ELISA (Amersham Pharmacia) or RIA. In experiments employing ELISA, media was aspirated, reactions were terminated by the addition of a lysis solution (200 μl per well) containing 0.5% dodecyltrimethylammonium bromide, and aliquots (100 μl) from each well were processed for cyclic nucleotide determinations. In experiments employing RIA, reactions were terminated with ice-cold 100% ethanol, and supernatants were separated from pellets by centrifugation and processed for cGMP determinations (8).

[7] = ST as an anticancer agent in vitro; type: cell-based
[8] = Pharmacokinetics of ST in rats; type: in vivo, rat; conditions: for half-life: rat, in vivo
[9] = Pharmacokinetics of ST in man by allometric scaling and dosage calculation
From the text: An alternative approach is to provide the patient with continual intravenous dosing of ST, thereby maintaining the cytostatic effect through adjuvant chemotherapy, while minimizing any adverse effects associated with ST. To achieve therapeutic efficacy, the steady state concentration (Css) should be ≧10 EC50.

[10] = test system: GCC-bearing cells; assay: Pre-clinical cell cycle analysis; type: cell-based; conditions: ST alone
[11] = test system: matrix metalloproteinase 9 release from human colorectal cancer cells; assay: Release of matrix metalloproteinase 9 (MMP 9 activity, western blot); type: cell-based; conditions: ST 1 micromolar
From the text: Preventing the secretion of this digestive enzyme will inhibit the ability of these tumor cells to invade the wall of the intestine. […] ST did this at a concentration of 1 micromolar.

[12] = test system: human colorectal cancer cells; assay: Actin cytoskeleton organization (confocal microscopy, cell spreading); type: cell-based
From the text: ST prevented human colorectal cancer cells from organizing their actin cytoskeleton. […] The latter is a functional readout of the ability of cells to organize actin. Human colorectal cancer cells treated with ST cannot spread their bodies out in vitro. An inability to organize their actin cytoskeletons will prevent these cells from being able to migrate through tissues to metastasize.

[13] = test system: human colorectal cancer cells; assay: Association of cells with connective tissue proteins in vitro; type: cell-based; conditions: ST at 1 micromolar
From the text: Type IV collagen forms the connective tissue meshwork supporting the lamina propria and specifically serves to trap cells through specific interactions with beta integrins. Cancer cells evade this trap by diminishing their ability to bind to type IV collagen. […] Enhancing this interaction will prevent metastases by trapping cells in the laminapropria underlying epithelial cells in the intestine.

[14] = test system: human T84 colon cancer cells; assay: Perforated whole-cell patch-clamp current measurements; type: cell-based; conditions: Ca-free solution, n=5
[15] = target: ST receptors (Homo sapiens, UniProt P25092); conditions: about; cited from earlier work
ST receptors, sequence (P25092 24-1073): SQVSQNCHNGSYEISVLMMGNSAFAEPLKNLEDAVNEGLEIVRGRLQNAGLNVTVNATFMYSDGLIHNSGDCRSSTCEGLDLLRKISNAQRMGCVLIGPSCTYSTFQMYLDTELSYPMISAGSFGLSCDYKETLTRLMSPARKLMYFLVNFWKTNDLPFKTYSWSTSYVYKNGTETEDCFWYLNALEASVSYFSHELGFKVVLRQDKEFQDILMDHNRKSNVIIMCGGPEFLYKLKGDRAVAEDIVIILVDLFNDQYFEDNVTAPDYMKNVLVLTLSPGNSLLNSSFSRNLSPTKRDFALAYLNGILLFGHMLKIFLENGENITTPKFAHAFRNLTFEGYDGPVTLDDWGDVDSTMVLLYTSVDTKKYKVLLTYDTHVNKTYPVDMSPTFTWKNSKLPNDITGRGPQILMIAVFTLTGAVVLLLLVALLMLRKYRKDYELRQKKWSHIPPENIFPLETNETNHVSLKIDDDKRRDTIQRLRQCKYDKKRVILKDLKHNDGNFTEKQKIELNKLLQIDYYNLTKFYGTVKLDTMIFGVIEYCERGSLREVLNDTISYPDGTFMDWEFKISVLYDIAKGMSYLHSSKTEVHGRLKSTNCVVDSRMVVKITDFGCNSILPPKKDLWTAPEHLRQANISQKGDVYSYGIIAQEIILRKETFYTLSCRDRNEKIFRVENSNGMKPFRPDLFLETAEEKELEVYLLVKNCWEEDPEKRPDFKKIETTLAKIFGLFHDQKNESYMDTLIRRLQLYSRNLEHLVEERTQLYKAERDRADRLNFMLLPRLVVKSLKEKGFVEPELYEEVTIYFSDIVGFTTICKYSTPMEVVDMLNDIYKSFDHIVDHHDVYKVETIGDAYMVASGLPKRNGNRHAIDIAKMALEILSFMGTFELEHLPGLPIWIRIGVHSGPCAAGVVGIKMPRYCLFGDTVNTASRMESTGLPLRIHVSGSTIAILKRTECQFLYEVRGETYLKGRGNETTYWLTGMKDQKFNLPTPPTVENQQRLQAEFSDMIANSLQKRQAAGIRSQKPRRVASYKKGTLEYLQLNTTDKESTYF

COc1ccc([C@H]2Sc3ccccc3N(CCN(C)C)C(=O)[C@H]2OC(C)=O)cc1 (relative stereo) [L-DLT, L-cis-diltiazem]
Effect of L-DLT on inhibition of proliferation by 8-br-cGMP ([1]; 200 μM L-DLT, 8-br-cGMP 5 mM): blocked
Effect of agent on inhibition of proliferation induced by ST ([1]; with ST, 1 μM KT5823, 50 μM RP8pCPT-cGMP, 0.5 μM KT5720, 50 μM RP-cAMPs, 10 μM milrinone, 200 μM L-DLT, 20 μM BAPTA, 50 μM DTR, 1 μM PHE, 100 nM CTX): prevented; also recorded: blocked
Effect of L-DLT on ST-induced current and reversal potential shift ([2]; 200 μM L-DLT): reversibly blocked; also recorded: reversed
Reversal potential Em restored by L-DLT in the presence of ST ([2]; n=4): −39.5±5.2 mV
Effect of L-DLT on ST- and 8-br-cGMP-induced 45Ca2+ influx ([3]; pretreatment 30 min, 250 μM L-DLT): inhibited; also recorded: abolished
Effect on ST-induced 45Ca2+ influx in the rat colon [4]: abolished

CC(C)C[C@@H]1NC(=O)[C@H](CCC(=O)O)NC(=O)[C@@H]2CSSC[C@@H]3NC(=O)[C@H](C)NC(=O)[C@@H]4CCCN4C(=O)[C@H](CC(N)=O)NC(=O)[C@H](CSSC[C@H](NC(=O)[C@H](Cc4ccc(O)cc4)NC(=O)[C@H](Cc4ccccc4)NC(=O)[C@@H](NC(=O)[C@@H](N)CC(N)=O)[C@@H](C)O)C(=O)N2)NC(=O)[C@H](CSSC[C@@H](C(=O)N[C@@H](Cc2ccc(O)cc2)C(=O)O)NC(=O)CNC(=O)[C@H](C)NC3=O)NC1=O [ST]
Inhibition of DNA synthesis by ST [5]: not in tumor cells deficient in GC-C; also recorded: not in those cells that do not express GC-C
Inhibition of DNA synthesis / cell proliferation by ST ([1]; T84 cells expressing GC-C, ST 1 μM): inhibits DNA synthesis; also recorded: inhibits cell proliferation
Induction of Ca2+-dependent K+ current (KCa), charybdotoxin-sensitive [2]: induced
Reversal potential derived from the induced current-voltage relationship [2]: ~−70 mV
Induction of L-DLT-sensitive membrane current ([2]; 500 nM ST, 2.5 mM 8-br-cGMP): induced membrane current; also recorded: induces an L-DLT-sensitive current
Induced current in the presence of [Ca2+]ext ([2]; control, 1.8 mM CaCl2, n=5): 0.23±0.07 nA
Reversal potential Em in the presence of ST ([2]; n=6): −66.3±3.6 mV
Shift of the reversal potential ΔEm ([2]; ramp pulses, holding potential −40 mV, mean±SEM): −27.5±2.6 mV
Influx of 45Ca2+ into colon cancer cells ([3]; ST 1 μM, 20 min, 8-br-cGMP 5 mM, 40 min): induced influx
[cAMP]i accumulation [6]: did not induce [cAMP]i accumulation
[cGMP]i accumulation [6]: induced the accumulation of [cGMP]i; also recorded: independent of [Ca2+]ext
pIC50 [7]: 7.85
Volume of distribution, Vd ([8]; in rats, an ECF agent): 49 mls in rats (An ECF agent)
Clearance ([8]; in rats, primarily renal): 14.9 hr^−1 in rats (Primarily renal)
half-life ([8]; α phase, read-out: Blood half-life for ST (rat), α): 6 min
half-life ([8]; β phase, read-out: Blood half-life for ST (rat), β (converted)): 161 min
Clearance Cl ([9]; 70 kg man, (0.693)(Vd)/(t1/2)): 3.7 mL/min/kg
Volume of distribution Vd of ST ([9]; 70 kg patient, ECF volume): 12 L
t1/2 (α) in man ([9]; calculated): 24 min
Blood half-life for ST (man), α ([9]; man, α phase, allometric scaling theory): 24 min
Blood half-life for ST (man), β ([9]; man, β phase, allometric scaling theory): 667.2 min
t1/2 (α+β) ([9]; used for infusion rate calculation): 31.8 min
Effect on cell cycle [10]: prolongation of the cell cycle; also recorded: increases equally for all four phases of the cell cycle
Release of matrix metalloproteinase 9 [11]: inhibited the release
Organization of actin cytoskeleton ([12]; ST 1 micromolar, confocal microscopy): prevented
Cell spreading ([12]; in vitro): cannot spread
Increase of association of cells with laminin or fibronectin [13]: not with laminin or fibronectin
Increase of association of cells with type IV collagen [13]: 2 fold
Induced current after removal of [Ca2+]ext [14]: 0.02±0.01 nA

Guanylin: 15 amino acid peptide with about 50% sequence homology to ST, identified in mammalian intestine (PNTCEICAYAACTGC; guanylin)
Guanylate cyclase activation level, fold less than native ST [15]: 10- to 100 fold
